In the NIST ThermoML archive (doi:10.1021/je500502a):
Numbers after ± are expanded uncertainties.

What was measured:
[1] = 101.33 kPa, Liquid; for electrical conductivity: PICO digital conductivity meter; for speed of sound: Sing-around technique in a fixed-path interferometer; for mass density: Vibrating tube method
[2] = refractive index (Na D-line) (dimensionless); settings: 101.33 kPa, Liquid, Standard Abbe refractometry

CCn1cc[n+](C)c1.O=S(=O)([N-]S(=O)(=O)C(F)(F)F)C(F)(F)F
Settings	electrical conductivity, [1] [S/m]	mass density, [1] [kg/m3]	refractive index, [2]	speed of sound, [1] [m/s]
293.15 K	0.854 ± 0.014	1521.47 ± 2.1	1.42425 ± 0.0006	1251.2 ± 2.1
298.15 K	0.947 ± 0.015	1516.39 ± 2.1	1.42286 ± 0.0006	1240.3 ± 2.1
303.15 K	1.07 ± 0.017	1511.32 ± 2.1	1.42142 ± 0.0006	1229.4 ± 2.1
308.15 K	1.19 ± 0.019	1506.27 ± 2.1	1.41997 ± 0.0006	1218.5 ± 2.1
313.15 K	1.33 ± 0.021	1501.23 ± 2	1.4185 ± 0.0006	1207.8 ± 2.1
318.15 K	1.48 ± 0.024	1496.21 ± 2	1.41705 ± 0.00061	1197.2 ± 2.1
323.15 K	1.64 ± 0.026	1491.21 ± 2	1.41555 ± 0.00061	1186.7 ± 2.1
